The source of these data is ChEMBL document CHEMBL4130538, “Discovery of novel anti-angiogenesis agents. Part 7: Multitarget inhibitors of VEGFR-2, TIE-2 and EphB4” (Eur J Med Chem, 2017).

Molecules are shown by their SMILES.

As a reminder, the IC50 is the concentration at which inhibition is half-maximal. A high value points to weaker potency.

The target of one experiment is Angiopoietin-1 receptor (Homo sapiens, UniProt Q02763). Nature of the experiment: Inhibition of TIE-2 (unknown origin) after 4 hrs by ADP-Glo luminescence assay. Background: ADP-Glo first removes unused ATP, then detects ADP through luciferase.
For experiment [1], the target named is Vascular endothelial growth factor receptor 2 (Homo sapiens, UniProt P35968). In words: Inhibition of VEGFR-2 (unknown origin) after 60 mins by ADP-Glo luminescence assay.
In another experiment the target is T1, Ephrin type-B receptor 4 (Homo sapiens, UniProt P54760).
T1 sequence (P54760 whole entry): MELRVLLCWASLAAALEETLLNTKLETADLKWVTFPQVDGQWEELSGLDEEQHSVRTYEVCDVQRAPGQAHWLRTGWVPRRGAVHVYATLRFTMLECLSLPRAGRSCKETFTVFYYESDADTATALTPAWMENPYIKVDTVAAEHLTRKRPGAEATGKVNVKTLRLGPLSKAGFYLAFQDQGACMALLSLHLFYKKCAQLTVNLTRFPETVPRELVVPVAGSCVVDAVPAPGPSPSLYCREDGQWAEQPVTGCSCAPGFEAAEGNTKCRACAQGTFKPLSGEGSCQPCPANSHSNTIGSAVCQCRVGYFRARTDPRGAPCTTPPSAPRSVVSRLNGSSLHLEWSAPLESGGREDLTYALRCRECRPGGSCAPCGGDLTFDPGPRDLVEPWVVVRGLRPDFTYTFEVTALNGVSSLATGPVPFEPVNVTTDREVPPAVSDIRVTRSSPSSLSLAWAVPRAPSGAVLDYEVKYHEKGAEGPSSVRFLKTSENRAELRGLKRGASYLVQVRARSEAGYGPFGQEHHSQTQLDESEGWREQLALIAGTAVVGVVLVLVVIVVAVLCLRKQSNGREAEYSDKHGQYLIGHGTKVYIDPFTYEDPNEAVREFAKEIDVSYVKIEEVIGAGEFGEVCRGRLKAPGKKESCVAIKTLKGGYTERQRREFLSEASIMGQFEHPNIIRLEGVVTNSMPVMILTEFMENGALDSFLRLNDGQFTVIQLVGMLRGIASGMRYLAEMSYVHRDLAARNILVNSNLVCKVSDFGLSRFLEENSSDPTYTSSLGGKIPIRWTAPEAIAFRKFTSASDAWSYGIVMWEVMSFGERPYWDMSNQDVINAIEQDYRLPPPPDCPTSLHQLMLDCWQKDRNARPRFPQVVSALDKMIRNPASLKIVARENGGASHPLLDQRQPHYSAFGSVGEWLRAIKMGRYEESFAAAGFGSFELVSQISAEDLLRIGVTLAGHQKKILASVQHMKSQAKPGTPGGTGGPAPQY
In words: Inhibition of EphB4 (unknown origin) after 4 hrs by ADP-Glo luminescence assay.

A further experiment concerns EA.hy 926. Nature of the experiment: Anti-angiogenic activity in human EAhy926 cells as growth inhibition after 24 hrs by CCK-8 assay. Conditions: EA.hy 926, 24 h. Type of experiment: cell-based. For orientation: Formazan colour is commonly taken as a measure of viable cells.
The target of experiment [2] is Vascular endothelial growth factor receptor 1 (Homo sapiens, UniProt P17948). In words: Inhibition of VEGFR-1 (unknown origin).
Experiment [3] has as its target Vascular endothelial growth factor receptor 3 (Homo sapiens, UniProt P35916). In words: Inhibition of VEGFR-3 (unknown origin).
In experiment [4] the target is Epidermal growth factor receptor (Homo sapiens, UniProt P00533). Nature of the experiment: Inhibition of EGFR (unknown origin).
In experiment [5] the target is Fibroblast growth factor receptor 1 (Homo sapiens, UniProt P11362). Nature of the experiment: Inhibition of FGFR-1 (unknown origin).
Experiment [6] deals with Fibroblast growth factor receptor 4 (Homo sapiens, UniProt P22455). Nature of the experiment: Inhibition of FGFR-4 (unknown origin).
For experiment [7], the target named is Platelet-derived growth factor receptor beta (Homo sapiens, UniProt P09619). Nature of the experiment: Inhibition of PDGFRbeta (unknown origin).
Experiment [8] has as its target Insulin-like growth factor 1 receptor (Homo sapiens, UniProt P08069). In words: Inhibition of IGF1-R (unknown origin).
Experiment [9] deals with Serine/threonine-protein kinase B-raf (Homo sapiens, UniProt P15056). In words: Inhibition of BRAF (unknown origin).
For experiment [10], the target named is Mast/stem cell growth factor receptor Kit (Homo sapiens, UniProt P10721). In words: Inhibition of cKIT (unknown origin).
For experiment [11], the target named is Hepatocyte growth factor receptor (Homo sapiens, UniProt P08581). In words: Inhibition of cMET (unknown origin).

Angiopoietin-1 receptor, sequence (Q02763 whole entry): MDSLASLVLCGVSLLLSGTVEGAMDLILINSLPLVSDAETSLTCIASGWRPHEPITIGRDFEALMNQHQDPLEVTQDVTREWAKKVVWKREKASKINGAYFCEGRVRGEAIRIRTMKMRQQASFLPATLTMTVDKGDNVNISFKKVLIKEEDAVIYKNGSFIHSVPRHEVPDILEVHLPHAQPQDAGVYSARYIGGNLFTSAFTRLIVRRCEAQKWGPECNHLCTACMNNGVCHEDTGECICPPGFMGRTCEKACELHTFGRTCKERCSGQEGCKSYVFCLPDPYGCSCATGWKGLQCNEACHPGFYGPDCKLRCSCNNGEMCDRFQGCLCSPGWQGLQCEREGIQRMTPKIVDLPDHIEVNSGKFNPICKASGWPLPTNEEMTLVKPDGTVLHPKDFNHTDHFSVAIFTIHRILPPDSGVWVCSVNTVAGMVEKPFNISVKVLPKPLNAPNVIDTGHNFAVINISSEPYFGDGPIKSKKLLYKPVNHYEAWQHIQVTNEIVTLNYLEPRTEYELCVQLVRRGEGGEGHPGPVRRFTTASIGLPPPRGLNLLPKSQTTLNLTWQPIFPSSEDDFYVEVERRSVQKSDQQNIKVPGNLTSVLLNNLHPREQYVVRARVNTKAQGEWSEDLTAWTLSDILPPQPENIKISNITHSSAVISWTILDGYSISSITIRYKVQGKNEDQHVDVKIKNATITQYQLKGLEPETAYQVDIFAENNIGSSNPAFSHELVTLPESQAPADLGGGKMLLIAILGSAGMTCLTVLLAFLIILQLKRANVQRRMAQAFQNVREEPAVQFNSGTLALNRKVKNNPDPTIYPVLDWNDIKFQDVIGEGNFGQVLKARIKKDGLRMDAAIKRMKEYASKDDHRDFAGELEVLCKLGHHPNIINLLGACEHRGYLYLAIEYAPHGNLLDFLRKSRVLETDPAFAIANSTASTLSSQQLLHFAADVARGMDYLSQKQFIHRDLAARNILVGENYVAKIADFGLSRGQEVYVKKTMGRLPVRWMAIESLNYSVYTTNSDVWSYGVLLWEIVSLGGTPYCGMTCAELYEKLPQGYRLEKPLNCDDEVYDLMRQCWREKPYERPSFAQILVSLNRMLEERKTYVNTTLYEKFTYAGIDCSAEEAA
Vascular endothelial growth factor receptor 2, sequence (P35968 whole entry): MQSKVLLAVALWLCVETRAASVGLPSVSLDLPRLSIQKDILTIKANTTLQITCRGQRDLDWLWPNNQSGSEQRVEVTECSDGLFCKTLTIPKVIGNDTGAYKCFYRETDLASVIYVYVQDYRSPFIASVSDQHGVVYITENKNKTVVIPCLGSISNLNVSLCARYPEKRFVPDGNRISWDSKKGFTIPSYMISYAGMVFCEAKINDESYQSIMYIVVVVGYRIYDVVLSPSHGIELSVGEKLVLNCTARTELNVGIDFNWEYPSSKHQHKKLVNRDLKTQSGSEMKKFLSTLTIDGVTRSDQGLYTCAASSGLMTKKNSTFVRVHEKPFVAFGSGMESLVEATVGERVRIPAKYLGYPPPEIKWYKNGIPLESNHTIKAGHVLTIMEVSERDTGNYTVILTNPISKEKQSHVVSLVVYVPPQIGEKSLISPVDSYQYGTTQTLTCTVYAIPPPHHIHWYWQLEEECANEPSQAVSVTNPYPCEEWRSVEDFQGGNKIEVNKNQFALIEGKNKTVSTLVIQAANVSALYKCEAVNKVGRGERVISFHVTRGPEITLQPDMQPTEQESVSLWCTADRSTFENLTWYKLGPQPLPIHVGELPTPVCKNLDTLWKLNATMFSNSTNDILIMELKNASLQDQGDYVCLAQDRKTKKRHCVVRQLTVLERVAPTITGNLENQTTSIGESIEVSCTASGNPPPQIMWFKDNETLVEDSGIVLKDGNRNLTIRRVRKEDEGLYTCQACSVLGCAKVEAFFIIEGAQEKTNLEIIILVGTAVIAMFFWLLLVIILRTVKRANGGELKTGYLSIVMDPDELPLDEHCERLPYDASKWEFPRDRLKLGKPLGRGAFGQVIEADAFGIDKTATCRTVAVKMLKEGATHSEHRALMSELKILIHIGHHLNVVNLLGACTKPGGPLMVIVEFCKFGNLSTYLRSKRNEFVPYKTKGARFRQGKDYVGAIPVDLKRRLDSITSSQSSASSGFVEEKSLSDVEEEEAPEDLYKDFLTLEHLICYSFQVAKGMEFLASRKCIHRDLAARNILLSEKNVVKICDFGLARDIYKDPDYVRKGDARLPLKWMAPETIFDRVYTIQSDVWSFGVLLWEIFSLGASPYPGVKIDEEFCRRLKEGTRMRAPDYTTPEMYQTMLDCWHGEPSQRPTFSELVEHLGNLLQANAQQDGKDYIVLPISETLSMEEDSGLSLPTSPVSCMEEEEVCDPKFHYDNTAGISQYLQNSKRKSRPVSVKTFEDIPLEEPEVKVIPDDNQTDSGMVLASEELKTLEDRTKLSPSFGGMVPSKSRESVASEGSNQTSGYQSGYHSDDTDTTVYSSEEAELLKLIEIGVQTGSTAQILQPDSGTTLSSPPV
Serine/threonine-protein kinase B-raf, sequence (P15056 whole entry): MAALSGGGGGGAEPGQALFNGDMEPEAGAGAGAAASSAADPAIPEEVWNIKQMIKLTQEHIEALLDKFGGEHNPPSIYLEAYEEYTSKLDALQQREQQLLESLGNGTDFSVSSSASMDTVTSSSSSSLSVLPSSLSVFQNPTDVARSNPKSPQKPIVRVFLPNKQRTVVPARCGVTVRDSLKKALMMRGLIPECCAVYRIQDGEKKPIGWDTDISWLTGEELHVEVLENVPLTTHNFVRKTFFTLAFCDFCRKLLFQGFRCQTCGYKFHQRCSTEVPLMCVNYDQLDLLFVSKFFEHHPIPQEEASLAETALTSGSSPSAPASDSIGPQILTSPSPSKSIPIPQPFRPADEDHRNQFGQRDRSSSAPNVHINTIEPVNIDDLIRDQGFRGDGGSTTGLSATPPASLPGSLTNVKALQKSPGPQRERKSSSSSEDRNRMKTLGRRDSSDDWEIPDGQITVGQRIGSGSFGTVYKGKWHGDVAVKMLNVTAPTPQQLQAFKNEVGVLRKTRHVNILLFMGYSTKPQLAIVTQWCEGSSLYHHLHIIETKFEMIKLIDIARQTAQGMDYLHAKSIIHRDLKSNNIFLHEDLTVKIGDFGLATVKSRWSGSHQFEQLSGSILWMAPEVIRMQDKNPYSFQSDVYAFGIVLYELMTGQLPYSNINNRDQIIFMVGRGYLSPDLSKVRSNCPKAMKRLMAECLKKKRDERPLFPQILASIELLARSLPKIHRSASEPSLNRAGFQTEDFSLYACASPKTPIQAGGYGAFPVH
Insulin-like growth factor 1 receptor, sequence (P08069 31-736 limits assumed): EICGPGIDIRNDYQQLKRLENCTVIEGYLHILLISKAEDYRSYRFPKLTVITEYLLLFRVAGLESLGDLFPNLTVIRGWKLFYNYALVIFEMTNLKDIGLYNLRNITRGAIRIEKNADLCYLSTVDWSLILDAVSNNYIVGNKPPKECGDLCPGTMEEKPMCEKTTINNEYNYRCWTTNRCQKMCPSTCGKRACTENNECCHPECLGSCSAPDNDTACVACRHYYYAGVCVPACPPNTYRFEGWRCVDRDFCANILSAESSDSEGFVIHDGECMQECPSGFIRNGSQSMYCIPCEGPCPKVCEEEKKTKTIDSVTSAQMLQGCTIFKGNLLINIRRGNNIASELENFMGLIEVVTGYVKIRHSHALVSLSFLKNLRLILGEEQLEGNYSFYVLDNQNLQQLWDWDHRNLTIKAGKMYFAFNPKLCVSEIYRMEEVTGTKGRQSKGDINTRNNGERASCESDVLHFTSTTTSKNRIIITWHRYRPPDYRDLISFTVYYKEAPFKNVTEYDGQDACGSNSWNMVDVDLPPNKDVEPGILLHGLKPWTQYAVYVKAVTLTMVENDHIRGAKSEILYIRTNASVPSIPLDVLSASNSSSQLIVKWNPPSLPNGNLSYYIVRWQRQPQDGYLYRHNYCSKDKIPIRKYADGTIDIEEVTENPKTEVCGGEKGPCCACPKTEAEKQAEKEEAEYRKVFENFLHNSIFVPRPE
Insulin-like growth factor 1 receptor, sequence (P08069 741-1367 limits assumed): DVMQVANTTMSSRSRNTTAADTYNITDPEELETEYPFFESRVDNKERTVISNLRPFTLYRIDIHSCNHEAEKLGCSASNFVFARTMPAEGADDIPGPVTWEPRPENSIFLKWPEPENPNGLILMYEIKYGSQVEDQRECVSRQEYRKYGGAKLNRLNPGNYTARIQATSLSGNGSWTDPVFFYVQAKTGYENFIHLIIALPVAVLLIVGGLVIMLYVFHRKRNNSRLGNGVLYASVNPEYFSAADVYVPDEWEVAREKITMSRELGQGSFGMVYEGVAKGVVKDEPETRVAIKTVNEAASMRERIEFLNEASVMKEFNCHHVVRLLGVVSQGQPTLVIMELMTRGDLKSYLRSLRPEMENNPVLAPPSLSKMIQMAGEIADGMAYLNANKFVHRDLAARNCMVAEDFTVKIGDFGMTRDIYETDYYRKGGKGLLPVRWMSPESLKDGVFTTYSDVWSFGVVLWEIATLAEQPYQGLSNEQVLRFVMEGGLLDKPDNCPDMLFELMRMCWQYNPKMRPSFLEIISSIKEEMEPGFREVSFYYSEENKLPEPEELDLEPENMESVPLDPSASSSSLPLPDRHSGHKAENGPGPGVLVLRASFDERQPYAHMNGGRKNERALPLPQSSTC

For `O=C(Nc1cccc(-c2ccc3c(=O)[nH]cnc3c2)c1)Nc1cc(C(F)(F)F)cc(C(F)(F)F)c1`, at Angiopoietin-1 receptor, 245 nM corresponded to half-maximal inhibition (IC50). With `Nc1ncc2ccc(-c3ccc(NC(=O)C4(C(=O)Nc5ccc6c(c5)OCO6)CC4)cc3)cc2n1`, the half-maximal inhibitory concentration (IC50) in experiment [1] was above 500 nM; against Angiopoietin-1 receptor, 432 nM; at Ephrin type-B receptor 4, above 500 nM; in the experiment on EA.hy 926 it was 29200 nM.

Regarding `C=CC(=O)Nc1ccc(-c2ccc(NC(=O)Nc3cccc(F)c3)cc2)cn1`, at Angiopoietin-1 receptor, the IC50 amounted to 90.9 nM. This counts as double-digit nanomolar. Still for that read-out and setting: under `C=CC(=O)Nc1ccc(-c2ccc(NC(=O)Nc3ccccc3Cl)cc2)cn1` stands 7.97 nM; under `Nc1ncc2ccc(-c3ccc(NC(=O)C4(C(=O)Nc5cc(OC(F)(F)F)ccc5Br)CC4)cc3)cc2n1`, 14.7 nM.

`O=C(Nc1cccc(Cl)c1)Nc1cccc(-c2ccc3c(=O)[nH]cnc3c2)c1` had a half-inhibitory concentration (IC50) at Angiopoietin-1 receptor of 24.8 nM.

In turn, `O=C(Nc1cccc(-c2ccc3c(=O)[nH]cnc3c2)c1)Nc1ccc(Cl)c(C(F)(F)F)c1` yielded an IC50 against Angiopoietin-1 receptor above 500 nM. On to `Nc1ncc2ccc(-c3ccc(NC(=O)C4(C(=O)Nc5ccc(OCCCN6CCOCC6)c(F)c5)CC4)cc3)cc2n1`, for which the concentration for half-maximal inhibition (IC50) in experiment [1] is above 500 nM; against Angiopoietin-1 receptor, above 500 nM; at Ephrin type-B receptor 4, above 500 nM; with EA.hy 926, 32200 nM. In the case of `C=CC(=O)Nc1ccc(-c2ccc(NC(=O)Nc3c(C)cccc3C)cc2)cn1`, the IC50 on Angiopoietin-1 receptor is above 500 nM. On the same count and under the same terms, under `Nc1ncc2ccc(-c3ccc(NC(=O)C4(C(=O)Nc5cc(Br)cc(C(F)(F)F)c5)CC4)cc3)cc2n1` stands 65.3 nM. On Angiopoietin-1 receptor, `Nc1ncc2ccc(-c3ccc(NC(=O)C4(C(=O)Nc5ccc(F)c(F)c5)CC4)cc3)cc2n1` returned an IC50 of 14.5 nM. The same measure, in the same setting: under `Nc1ncc2ccc(-c3ccc(NC(=O)C4(C(=O)Nc5ccc(OC(F)(F)F)cc5Br)CC4)cc3)cc2n1` stands above 500 nM; under `O=C(Nc1cccc(-c2ccc3c(=O)[nH]cnc3c2)c1)Nc1cccc(C(F)(F)F)c1`, 12.8 nM.

On to `C=CC(=O)Nc1ccc(-c2ccc(NC(=O)Nc3ccc(C(C)(C)C)cc3)cc2)cn1`, for which 21.3 nM corresponded to half-maximal inhibition against Angiopoietin-1 receptor (IC50). Still for that read-out and setting: under `C=CC(=O)Nc1ccc(-c2ccc(NC(=O)Nc3ccc(C)c(Cl)c3)cc2)cn1` stands 14.2 nM. Still for that read-out and setting: under `C=CC(=O)Nc1ccc(-c2ccc(NC(=O)Nc3cccc(C(F)(F)F)c3)cc2)cn1` stands 3.59 nM; under `Nc1ncc2ccc(-c3ccc(NC(=O)C4(C(=O)Nc5ccc(Cl)cc5Cl)CC4)cc3)cc2n1`, 54.9 nM. As for `C=CC(=O)Nc1ccc(-c2ccc(NC(=O)Nc3cccc(Cl)c3)cc2)cn1`, the IC50 at Angiopoietin-1 receptor stood at 5.63 nM; in [2], 25 nM; in experiment [3] it was 45 nM; in [4] it was 8.7 nM; in [5], 200 nM; in [6] it was 1080 nM. Moreover, the IC50 in experiment [7] was found to be 180 nM; in experiment [8], 40 nM; in experiment [9], 32 nM; in [10] it was 68.9 nM; in [11] it was 57.8 nM. In the case of `C=CC(=O)Nc1ccc(-c2ccc(NC(=O)Nc3ccc(F)cc3)cc2)cn1`, the IC50 on Angiopoietin-1 receptor was 105 nM. This lies in the sub-micromolar range. Same read-out and setting: then `C=CC(=O)Nc1ccc(-c2ccc(NC(=O)Nc3ccc(OC(F)(F)F)cc3)cc2)cn1`, with 59.9 nM. Regarding `O=C(Nc1cccc(-c2ccc3c(=O)[nH]cnc3c2)c1)Nc1ccc(F)c(F)c1`, the concentration for half-maximal inhibition (IC50) on Angiopoietin-1 receptor was 16.6 nM. At Angiopoietin-1 receptor, `Nc1ncc2ccc(-c3ccc(NC(=O)C4(C(=O)Nc5ccc(Cl)c(Cl)c5)CC4)cc3)cc2n1` yielded an IC50 above 500 nM.

In turn, `Nc1ncc2ccc(-c3ccc(NC(=O)C4(C(=O)Nc5cc(C(F)(F)F)cc(C(F)(F)F)c5)CC4)cc3)cc2n1` returned a half-inhibitory concentration (IC50) at Angiopoietin-1 receptor of 21.2 nM. Still for that read-out and setting: under `C=CC(=O)Nc1ccc(-c2ccc(NC(=O)Nc3cccc(C(C)C)c3)cc2)cn1` stands 9.19 nM. On to `Nc1ncc2ccc(-c3ccc(NC(=O)C4(C(=O)Nc5ccc(Br)cc5OC(F)(F)F)CC4)cc3)cc2n1`, for which the 50% inhibitory concentration (IC50) on Angiopoietin-1 receptor is above 500 nM. With `C=CC(=O)Nc1ccc(-c2ccc(NC(=O)Nc3ccc(Cl)c(C(F)(F)F)c3)cc2)cn1`, on Angiopoietin-1 receptor, inhibition was half-maximal at 9.77 nM (IC50). Same read-out and setting: then `Nc1ncc2ccc(-c3ccc(NC(=O)C4(C(=O)Nc5cc(Br)ccc5OC(F)(F)F)CC4)cc3)cc2n1`, with above 500 nM.
